From US9512139B2, “Conformationally constrained, fully synthetic macrocyclic compounds” (POLYPHOR AG, priority 2009, dated 2016)

Experiments:
[1] = Metabolic stability assay, human microsomes; type: in vitro ADME; conditions: human, microsomes; for half-life at 10 µM: both sexes; for Metabolic Stability 60 min hum [% remain.]: both, 1 h, 10 µM
[2] = Metabolic stability assay, CD-1 mouse microsomes; type: in vitro ADME; conditions: CD-1, mouse, microsomes; for half-life at 10 µM: both sexes; for Metabolic Stability 60 min mouse [% remain.]: both, 1 h, 10 µM
[3] = target: T1, Prostaglandin F (FP) Receptor (Homo sapiens, UniProt P43088); experiment: Ca2+ assay (FLIPR) for the GPCR prostaglandin F (FP) receptor, agonist and antagonist mode; type: cell-based
T1 construct: host or cells: Ca2+ optimized hematopoietic cell lines (rat)
T1 sequence (P43088 whole entry): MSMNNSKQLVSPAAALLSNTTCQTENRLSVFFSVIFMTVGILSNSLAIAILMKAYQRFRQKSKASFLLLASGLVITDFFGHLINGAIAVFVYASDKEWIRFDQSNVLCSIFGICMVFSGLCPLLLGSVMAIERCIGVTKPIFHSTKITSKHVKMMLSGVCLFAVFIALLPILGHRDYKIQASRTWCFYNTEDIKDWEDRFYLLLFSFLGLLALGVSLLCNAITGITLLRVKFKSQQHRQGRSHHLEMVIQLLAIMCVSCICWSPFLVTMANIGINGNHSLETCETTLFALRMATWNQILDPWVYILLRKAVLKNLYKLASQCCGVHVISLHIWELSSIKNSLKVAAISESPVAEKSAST
Procedure: Biological and Pharmacological Methods 1. Ca^2+ Assays for the GPCRs Motilin Receptor, Prostaglandin F (FP) Receptor, 5-hydroxytryptamine 2B (5-HT2B) Receptor, and Purinoreceptor P2Y1
Assays were performed using on a FLIPR^TETRA fluorometric imaging plate reader (Molecular Devices) with ScreenWorks Version 2 (Molecular Devices) as device operating and data analysis software.
Dose dependent agonist and antagonist activities were determined. Percentage activation and percentage inhibition values were determined.
Percentage activation was determined upon initial addition of the sample compounds followed by 10 minutes incubation at 25° C. Following compound incubation, reference agonists were added at EC80 to determine percentage inhibition.
Reference agonists were purchased from reputable commercial vendors and prepared according to each ligand's specifications. All handling of ligands were done to ensure proper control throughout the experiments.
Example compounds were weighed on a Microbalance (Mettler MX5) and dissolved in 100% DMSO to a final concentration of 2.5 mM and subsequently diluted into the assay buffer.
The Assay buffer was a supplemented HBSS (Hank's Balanced Salt Solution). HBSS was supplemented with 20 mM HEPES (4-(2-hydroxyethyl)-piperazin-1-ethansulfonic acid) and 2.5 mM Probenecid (Sigma P8761).
GPCR assays were performed using Ca^2+ optimized hematopoietic cell lines (rat) with cultures never exceeding 90% confluency. Cells were harvested and seeded (from cultures at less than 90% confluency) at 50000 cells/well for a 96-well plate (12500 cells/well for 384). After seeding, the assay plates were incubated for forty-five (45) minutes at room temperature. After room temperature incubation, the assay plates were incubated at 37° C. 5% CO2 for 24 hours prior to assaying.
All GPCR assays were performed using Fluo-8 Ca^2+ dye. Ca^2+ dye was prepared at 1× dye concentration in GPCR assay buffer. After 24 hours of incubation, cells were washed with GPCR assay buffer, and then Ca^2+-dye (100 μL/well) was added.
The plates were incubated for 90 minutes at 30° C. 5% CO2 prior to FLIPR assay.
Compound plates were prepared to add 50 μL/well during the agonist assay mode. During the FLIPR assay, 50 μL/well from the compound plate was diluted 3-fold into the existing 100 μL/well from the dye loading step. Therefore all compounds were prepared as 3× the final concentration desired in the assay.
After completion of the first single addition assay run, assay plate was removed from the FLIPR Tetra and placed at 25° C. for seven (7) minutes before antagonist assay.
Using the EC80 values determined during the agonist assay, all pre-incubated sample compound and reference antagonist (if applicable) wells were stimulated at the EC80 of the reference agonist. As reference ligands for the first three assays their obvious natural ligands motilin, prostaglandin F2α, and serotonin (5-HT, 5-Hydroxytryptamine) were used; and for the P2Y1 assay 2MeSATP (2-methyl-thio-adeno-sine 5′-triphosphate, i.e. (2R,3S,4R)-5-(6-amino-2-methylsulfanyl-purin-9-yl)-3,4-dihydroxy-tetrahydrofuran-2-yl]methyl (hydroxy-phosphonooxy-phosphoryl)hydrogen phosphate) was applied.
After the addition of the reference agonist fluorescence was monitored for 180 sec using FLIPR Tetra.
Data Analysis and Results:
From the FLIPR data, with negative control correction enabled, the maximum statistic for each well was exported and percentage activation relative to Emax control was calculated.

[4] = in vitro; type: in vitro ADME, human; conditions: human, plasma; for Plasma Stability T½ [min] hum / Plasma Stability 240 min hum [% remain.]: 10 µM; for Plasma Stability 240 min hum [% remain.]: 4 h

SMILES	half-life at 10 µM [1] [min]	Metabolic Stability 60 min hum [% remain.] [1] [% remain.]	half-life at 10 µM [2] [min]	Metabolic Stability 60 min mouse [% remain.] [2] [% remain.]	IC50 [3] [µM]	inhibition at 10 µM [3] [%]	Plasma Stability T½ [min] hum [4] [min]	Plasma Stability 240 min hum [% remain.] [4] [% remain.]	half-life at 10 µM [4] [min]
CCCCCCCCCC(=O)N[C@H]1CN(C)C(=O)c2cccc(c2)OC[C@@H]2C[C@H](NC(=O)Cc3c[nH]c4ccccc34)CN2C(=O)CN(C)C1=O [Ex. 213, N-[(4S,6S,13S)-6-{[2-(1H-indol-3-yl)acetyl]amino}-11,15-dimethyl-9,12,16-trioxo-2-oxa-8,11,15-triazatricyclo[15.3.1.0^4,8]henicosa-1(21),17,19-trien-13-yl]decanamide]	16	0	17	4	1.7	78	–	–	–
CCCCCCCCCC(=O)N[C@H]1CCCN(C)C(=O)c2cccc(c2)OC[C@@H]2C[C@H](NC(=O)Nc3cccc(N(C)C)c3)CN2C1=O [Ex. 511, N-[(4S,6S,10S)-6-({[3-(dimethylamino)anilino]carbonyl}amino)-14-methyl-9,15-dioxo-2-oxa-8,14-diazatricyclo[14.3.1.0^4,8]icosa-1(20),16,18-trien-10-yl]decanamide]	2	1	14	14	0.059	99	> 240	100	–
CN1CCC[C@H](NC(=O)Cc2cccc3ccccc23)C(=O)N2C[C@@H](NC(=O)Nc3cccc(N(C)C)c3)C[C@H]2COc2cccc(c2)C1=O [Ex. 512, N-[(4S,6S,10S)-6-({[3-(dimethylamino)anilino]carbonyl}amino)-14-methyl-9,15-dioxo-2-oxa-8,14-diazatricyclo[14.3.1.0^4,8]icosa-1(20),16,18-trien-10-yl]-2-(1-naphthyl)acetamide]	17	8	12	10	0.12	97	> 240	86	–
CN1CCC[C@H](NC(=O)Cc2cccc(-c3ccccc3)c2)C(=O)N2C[C@@H](NC(=O)Nc3cccc(N(C)C)c3)C[C@H]2COc2cccc(c2)C1=O [Ex. 525, 2-[1,1′-biphenyl]-3-yl-N-[(4S,6S,10S)-6-({[3-(dimethylamino)anilino]carbonyl}amino)-14-methyl-9,15-dioxo-2-oxa-8,14-diazatricyclo[14.3.1.0^4,8]icosa-1(20),16,18-trien-10-yl]acetamide]	16	13	25	29	0.094	99	> 240	100	–
CN1CCC[C@H](NS(=O)(=O)c2ccc(-c3ccccc3)cc2)C(=O)N2C[C@@H](NC(=O)Cc3ccc4ccccc4c3)C[C@H]2COc2cccc(c2)C1=O [Ex. 527, N-[(4S,6S,10S)-10-[([1,1′-biphenyl]-4-ylsulfonyl)amino]-14-methyl-9,15-dioxo-2-oxa-8,14-diazatricyclo[14.3.1.0^4,8]icosa-1(20),16,18-trien-6-yl]-2-(2-naphthyl)acetamide]	22	23	20	24	0.204	73	–	26	109
CN1CCC[C@H](NC(=O)Cc2cccc3ccccc23)C(=O)N2C[C@@H](NC(=O)Cc3ccc(-c4ccccc4)cc3)C[C@H]2COc2cccc(c2)C1=O [Ex. 545, 2-[1,1′-biphenyl]-4-yl-N-[(4S,6S,10S)-14-methyl-10-{[2-(1-naphthyl)acetyl]amino}-9,15-dioxo-2-oxa-8,14-diazatricyclo[14.3.1.0^4,8]icosa-1(20),16,18-trien-6-yl]acetamide]	–	–	–	–	–	80	–	–	–
CN1CCC[C@H](NC(=O)Cc2ccc(-c3ccccc3)cc2)C(=O)N2C[C@@H](NC(=O)C(c3ccccc3)c3ccccc3)C[C@H]2COc2cccc(c2)C1=O [Ex. 546, N-[(4S,6S,10S)-10-[(2-[1,1′-biphenyl]-4-ylacetyl)amino]-14-methyl-9,15-dioxo-2-oxa-8,14-diazatricyclo[14.3.1.0^4,8]icosa-1(20),16,18-trien-6-yl]-2,2-diphenylacetamide]	–	–	–	–	–	37	–	–	–
CN1CCC[C@H](NC(=O)C(c2ccccc2)c2ccccc2)C(=O)N2C[C@@H](NC(=O)Cc3ccc(-c4ccccc4)cc3)C[C@H]2COc2cccc(c2)C1=O [Ex. 547, N-[(4S,6S,10S)-6-[(2-[1,1′-biphenyl]-4-ylacetyl)amino]-14-methyl-9,15-dioxo-2-oxa-8,14-diazatricyclo[14.3.1.0^4,8]icosa-1(20),16,18-trien-10-yl]-2,2-diphenylacetamide]	–	–	–	–	–	47	–	–	–
CCCCCCCCCC(=O)N[C@H]1CCCN(C)C(=O)c2cccc(c2)OC[C@@H]2C[C@H](NC(=O)C(c3ccccc3)c3ccccc3)CN2C1=O [Ex. 548, N-[(4S,6S,10S)-6-[(2,2-diphenylacetyl)amino]-14-methyl-9,15-dioxo-2-oxa-8,14-diazatricyclo[14.3.1.0^4,8]icosa-1(20),16,18-trien-10-yl]decanamide]	–	–	–	–	–	69	–	–	–
CN1CCC[C@H](NC(=O)Cc2cccc3ccccc23)C(=O)N2C[C@@H](NC(=O)C(c3ccccc3)c3ccccc3)C[C@H]2COc2cccc(c2)C1=O [Ex. 549, N-[(4S,6S,10S)-14-methyl-10-{[2-(1-naphthyl)acetyl]amino}-9,15-dioxo-2-oxa-8,14-diazatricyclo[14.3.1.0^4,8]icosa-1(20),16,18-trien-6-yl]-2,2-diphenylacetamide]	–	–	–	–	–	62	–	–	–
CCCCCCCCCC(=O)N[C@H]1CCCN(C)C(=O)c2cccc(c2)OC[C@@H]2C[C@H](NC(=O)CC(c3ccccc3)c3ccccc3)CN2C1=O [Ex. 550, N-[(4S,6S,10S)-6-[(3,3-diphenylpropanoyl)amino]-14-methyl-9,15-dioxo-2-oxa-8,14-diazatricyclo[14.3.1.0^4,8]icosa-1(20),16,18-trien-10-yl]decanamide]	–	–	–	–	–	73	–	–	–
CN1CCC[C@H](NC(=O)Cc2ccc(-c3ccccc3)cc2)C(=O)N2C[C@@H](NC(=O)Cc3ccc(-c4ccccc4)cc3)C[C@H]2COc2cccc(c2)C1=O [Ex. 551, 2-[1,1′-biphenyl]-4-yl-N-[(4S,6S,10S)-10-[(2-[1,1′-biphenyl]-4-ylacetyl)amino]-14-methyl-9,15-dioxo-2-oxa-8,14-diazatricyclo[14.3.1.0^4,8]icosa-1(20),16,18-trien-6-yl]acetamide]	–	–	–	–	–	72	–	–	–
CN1CCC[C@H](NC(=O)CC(C)(C)C)C(=O)N2C[C@@H](NC(=O)Nc3cccc(N(C)C)c3)C[C@H]2COc2cccc(c2)C1=O [Ex. 552, N-[(4S,6S,10S)-6-({[3-(dimethylamino)anilino]carbonyl}amino)-14-methyl-9,15-dioxo-2-oxa-8,14-diazatricyclo[14.3.1.0^4,8]icosa-1(20),16,18-trien-10-yl]-3,3-dimethylbutanamide]	–	–	–	–	–	71	–	–	–
